Publication PMC10095932 (Molecules, 2023)
Where a SMILES comes first, the peptide text is derived from it. Bridges are numbered along the chain shown (N, C = ends).

How the values were obtained:
rat NPR-A = target: T1, rat NPR-A (Rattus norvegicus, UniProt P18910); assay: cGMP ALPHAscreen, cGMP production in PC12 cells; assay type: cell-based
T1 construct: endogenous in cells; host or cells: rat PC12 cells
T1 sequence (P18910 29-1057): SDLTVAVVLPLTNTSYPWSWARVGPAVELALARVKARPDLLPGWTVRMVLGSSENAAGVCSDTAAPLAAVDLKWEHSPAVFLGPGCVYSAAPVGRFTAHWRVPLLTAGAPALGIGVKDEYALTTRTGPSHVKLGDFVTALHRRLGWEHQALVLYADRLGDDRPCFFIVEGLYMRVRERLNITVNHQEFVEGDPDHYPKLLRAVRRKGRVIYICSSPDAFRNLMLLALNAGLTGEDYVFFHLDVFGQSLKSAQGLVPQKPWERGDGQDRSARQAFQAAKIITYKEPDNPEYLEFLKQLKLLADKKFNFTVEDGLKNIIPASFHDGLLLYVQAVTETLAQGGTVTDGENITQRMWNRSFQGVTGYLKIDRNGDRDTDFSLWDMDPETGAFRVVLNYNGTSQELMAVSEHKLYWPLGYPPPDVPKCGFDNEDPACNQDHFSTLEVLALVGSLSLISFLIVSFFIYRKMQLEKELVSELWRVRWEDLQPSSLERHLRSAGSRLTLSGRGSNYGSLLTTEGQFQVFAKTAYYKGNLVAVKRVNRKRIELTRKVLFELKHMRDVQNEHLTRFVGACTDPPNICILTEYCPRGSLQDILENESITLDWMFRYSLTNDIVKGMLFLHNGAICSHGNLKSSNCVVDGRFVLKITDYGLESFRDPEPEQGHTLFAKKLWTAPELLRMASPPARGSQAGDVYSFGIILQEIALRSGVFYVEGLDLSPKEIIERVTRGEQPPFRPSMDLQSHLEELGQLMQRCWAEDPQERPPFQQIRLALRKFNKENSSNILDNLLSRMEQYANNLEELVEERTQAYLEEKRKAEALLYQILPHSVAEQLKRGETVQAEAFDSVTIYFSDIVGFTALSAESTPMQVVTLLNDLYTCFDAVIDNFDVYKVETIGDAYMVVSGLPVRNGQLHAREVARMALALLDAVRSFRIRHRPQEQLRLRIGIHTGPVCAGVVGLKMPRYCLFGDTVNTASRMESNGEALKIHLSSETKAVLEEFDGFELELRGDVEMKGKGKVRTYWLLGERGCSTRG
Method: NP activity can be determined by the effectiveness of the peptide to elicit cGMP production through NPR-A. The cGMP ALPHAscreen evaluates the ability of peptides to stimulate cGMP production in cells through a non-radioactive, homogenous, proximity assay which encompasses […]. […] In order to evaluate the potency of TNPa-e at rNPR-A, TNPa-e were evaluated using the cGMP ALPHAscreen in rat PC12 cells.
Cells were cultured at 5% CO2 and 37 °C. HEK 293 cells were cultured in high glucose DMEM (Gibco, Carlsbad, CA, USA) supplemented with 10% FBS, and 1% penicillin/streptomycin. HEK 293 cells were seeded in media lacking penicillin/streptomycin 24 to 48 h pre-transfection. PC12 cells were cultured in high glucose DMEM (Gibco) supplemented with 10% FBS and 1% penicillin/streptomycin.
The cGMP ALPHAscreen was performed using the ALPHAscreen Protein A detection kit and the biotinylated cGMP supplement (Perkin Elmer, Waltham, MA, USA) with rabbit anti-cGMP polyclonal antibody (Biovision, Mountain View, CA, USA). Cells were detached from the flask and the resulting pellet was resuspended in stimulation buffer (HBSS supplemented with 0.1% w/v BSA and 1 mM IBMX at 37 °C). Cells were added to a white 384-well Optiplate (Perkin Elmer, Waltham, USA) to 30,000 cells per well for HEK 293 cells and 10,000 cells per well for PC12 cells. Cells were incubated with different concentrations of test peptides (concentration range of 1 × 10^−5 to 1 × 10^−11 M in stimulation buffer) at 37 °C for 30 min. Cells were lysed with lysis buffer (1 M HEPES, 0.3% Tween-20, 1% BSA in H2O, pH 7.4). Then 5 μL acceptor-bead mix was added to each well under subdued lighting conditions, followed by 5 μL of donor-bead mix. Plates were incubated for ~12 h, slowly shaking at room temperature. After incubation, the ALPHAscreen signal was measured using an EnVision plate reader (Perkin Elmer). The standard curve consisted of cGMP in a concentration range of 1 × 10^−6 to 1 × 10^−12 M. All data points were acquired in triplicate and were analyzed using GraphPad Prism 5.0 software (GraphPad Software, Inc., San Diego, CA, USA).

NEP = target: T2, NEP (Homo sapiens, UniProt P08473); assay: Stability to neutral endopeptidase 24.11 (NEP); assay type: in vitro ADME; conditions: 3 h; 100 μL of 500 μM peptide, 500 ng NEP, 100 mM Tris.HCl, 150 mM NaCl, pH 7.4, 37 °C, RP-HPLC peak height
T2 construct: purchased R&D Systems (Minneapolis, MN, USA)
Method: NEP and plasmin stability: About 100 μL of 500 μM peptide was incubated with 500 ng NEP (activity 400 pmol min^−1 μg^−1) or 10 μg plasmin (0.51 U mg^−1, 0.51 μmol min^−1 mg^−1) in 100 mM Tris.HCl and 150 mM NaCl (pH 7.4) at 37 °C. Then, 50 μL aliquots were removed at designated times, quenched by heating to 100 °C for 4 min, and stored at −20 °C until subjected to RP-HPLC analysis.

T2 sequence (P08473 whole entry): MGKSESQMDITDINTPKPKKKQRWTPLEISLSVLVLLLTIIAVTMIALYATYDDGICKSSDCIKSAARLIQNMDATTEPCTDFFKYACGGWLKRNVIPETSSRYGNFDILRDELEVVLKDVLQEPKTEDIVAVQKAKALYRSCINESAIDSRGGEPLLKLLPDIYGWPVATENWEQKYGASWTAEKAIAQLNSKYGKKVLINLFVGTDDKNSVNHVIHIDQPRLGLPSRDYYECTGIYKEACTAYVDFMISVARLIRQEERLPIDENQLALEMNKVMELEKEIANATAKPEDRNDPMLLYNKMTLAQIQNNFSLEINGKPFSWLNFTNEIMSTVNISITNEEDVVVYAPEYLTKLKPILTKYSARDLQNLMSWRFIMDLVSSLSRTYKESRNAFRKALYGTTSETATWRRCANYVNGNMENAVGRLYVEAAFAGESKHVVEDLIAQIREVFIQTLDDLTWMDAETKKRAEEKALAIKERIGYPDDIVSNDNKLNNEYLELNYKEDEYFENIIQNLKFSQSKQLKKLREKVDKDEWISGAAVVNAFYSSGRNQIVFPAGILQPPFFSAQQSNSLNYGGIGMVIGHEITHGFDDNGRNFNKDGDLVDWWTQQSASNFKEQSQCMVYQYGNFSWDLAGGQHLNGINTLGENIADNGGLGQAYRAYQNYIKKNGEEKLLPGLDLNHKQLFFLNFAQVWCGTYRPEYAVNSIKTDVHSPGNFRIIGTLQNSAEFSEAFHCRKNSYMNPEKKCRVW

In the case of `CC[C@H](C)[C@H](NC(=O)[C@H](CCCCN)NC(=O)[C@H](CO)NC(=O)[C@H](CC(=O)O)NC(=O)[C@@H](N)CO)C(=O)NCC(=O)N[C@@H](CC(N)=O)C(=O)NCC(=O)N[C@H]1CSSC[C@@H](C(=O)N[C@@H](CC(N)=O)C(=O)N[C@@H](CCCNC(=N)N)C(=O)N[C@H](C(=O)N[C@@H](CCSC)C(=O)N[C@@H](CCC(N)=O)C(=O)N[C@@H](CC(N)=O)C(=O)N2CCC[C@H]2C(=O)N2CCC[C@H]2C(=O)N[C@@H](CCCCN)C(=O)N[C@@H](CCCCN)C(=O)N[C@@H](Cc2ccccc2)C(=O)N[C@@H](CO)C(=O)NCC(=O)N[C@@H](CCC(=O)O)C(=O)O)[C@@H](C)CC)NC(=O)CNC(=O)[C@H](CC(C)C)NC(=O)CNC(=O)[C@H](CO)NC(=O)[C@H](C(C)C)NC(=O)[C@H](CO)NC(=O)CNC(=O)[C@H]([C@@H](C)CC)NC(=O)[C@H](CCCNC(=N)N)NC(=O)[C@H](CC(=O)O)NC(=O)[C@H](CC(C)C)NC(=O)[C@@H]2CCCN2C(=O)[C@H](Cc2ccccc2)NC(=O)CNC(=O)[C@H](Cc2ccccc2)NC1=O` [TNPc] (H-SDSKIGNGCFGFPLDRIGSVSGLGCNRIMQNPPKKFSGE-OH; disulfide 9-25), the EC50 (rat NPR-A; PC12 cells, 30 min at 37 °C, cGMP ALPHAscreen, three to five separate experiments in triplicate, read-out: rNPR-A EC50 (95% CI), potency to stimulate cGMP production) is reported as 100 nM, the “selectivity / difference in potency for rNPR-A over hNPR-A” value (rat NPR-A; rNPR-A (PC12) versus hNPR-A (HEK 293) cGMP potency) is reported as 100 fold and the “state after incubation with NEP” value (NEP) is reported as “remained intact”.
